# Literature values as cited in patent publication US6579851B2, “Effects of glucagon-like peptide-1 (7-36) on antro-pyloro-duodenal motility” (Amylin Pharmaceuticals, Inc., priority 2000, dated 2003).
# Experiments:
# [1] = tested on: gastroduodenal motility; settings: cited from earlier work
# [2] = in vivo; cited from earlier work
substance,measurement,setting,value
Glucagon,Effect on contractions in the antrum,[1]; doses as high as 2 mg,does not reduce contractions in the antrum
same,Minimally effective dose for reduction in gastroduodenal motility,[1]; in vivo,0.5 mg
same,Dose at which side effects (nausea and vomiting) can appear,[2],1 mg
